Test results taken from US9708314B2, “Heterocyclic amide compound” (NISSAN CHEMICAL INDUSTRIES, LTD., priority 2013, dated 2017).

How the values were obtained:
Format in all cases: in vivo
[1] = test system: Echinochloa oryzacola Vasing.; test: Test Example 2: herbicidal activity, application during weed generation in submerged conditions; details: Eighteenth Table
Method in brief: (§1)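 Post-emergence application under submerged conditions: water-diluted emulsion dosed onto the water surface (g/ha) when weeds reach one- to two-leaf stage. Soil flooded to 4 cm; greenhouse 25–30 °C. Herbicidal ratio graded in six classes, 0 (≤5%) to 5 (≥90%), at three weeks.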

Monochoria vaginalis = test: as above; details: Eighteenth Table
Method in brief: as §1

Scirpus juncoides = test: as above; details: Eighteenth Table
Method in brief: as §1

Cyperus difformis = test: Test Example 3: herbicidal effect by application to foliage (Wagner pot, water depth 0.1-0.5 cm); details: Nineteenth Table, application to foliage
Method in brief: (§2)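 Wagner pot foliar test: sow, grow 14 d (25–30 °C), spray diluted emulsion at set g/ha, score after 3 wk; 0 ≤5%, 5 ≥90% herbicidal ratio.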

[2] = test system: Echinochloa crus-galli var. crus-galli; test: as above; details: Nineteenth Table, application to foliage
Method in brief: as §2

Leptochloa chinensis = test: as above; details: Nineteenth Table, application to foliage
Method in brief: as §2

[3] = test system: directly sowed Oryza sativa; test: Test Example 3: effect on crop by application to foliage (Wagner pot, water depth 0.1-0.5 cm); details: Nineteenth Table, application to foliage
Method in brief: as §2

Triticum aestivum = test: Test Example 4: effect on crop by application to foliage (diluvial soil, plastic box); details: for e: Application herbicide amount 320 g/ha, effect on crop; for e (Triticum aestivum) effect on crop grade: foliage application
Method in brief: (§3)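 Emulsion-formulated compound, diluted to a predetermined g/ha dose, applied by small sprayer to leaves and stems of 14-day-old seedlings grown in sterilized diluvial soil. Effect rated on 0–5 herbicidal-ratio scale three weeks on.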

Zea mays = test: as above; details: for b: Application herbicide amount 320 g/ha, effect on crop
Method in brief: as §3

[4] = application herbicide amount 320 g/ha
[5] = application herbicide amount 288 g/ha
[6] = application herbicide amount 192 g/ha

CC(C)Sc1nnc2c(C(=O)Nc3nnco3)ccc(C(F)(F)F)n12 [1-091]
A (Echinochloa oryzicola Vasing.) herbicidal ratio grade [1, 4]: 5 (Herbicidal ratio of 90% or more (almost completely withered))
C (Monochoria vaginalis) herbicidal ratio grade (Monochoria vaginalis; [4]): 5 (Herbicidal ratio of 90% or more (almost completely withered))
B (Scirpus juncoides) herbicidal ratio grade (Scirpus juncoides; [4]): 5 (Herbicidal ratio of 90% or more (almost completely withered))
E (herbicidal effect grade) (Cyperus difformis; [4]): 5 (Herbicidal ratio of 90% or more (almost completely withered))
H (herbicidal effect grade) [2, 4]: 5 (Herbicidal ratio of 90% or more (almost completely withered))
D (herbicidal effect grade) (Leptochloa chinensis; [4]): 5 (Herbicidal ratio of 90% or more (almost completely withered))
b (effect on crop grade) [3, 4]: 0 (Herbicidal ratio of 5% or less (almost no effect))
e (Triticum aestivum): 3 (Herbicidal ratio of 40% or more and less than 70%)
b (Zea mays): 0 (Herbicidal ratio of 5% or less (almost no effect))

CCC[S+]([O-])c1nnc2c(C(=O)Nc3nnc(C)o3)ccc(C(F)(F)F)n12 (stereo not drawn) [1-092]
A (Echinochloa oryzicola Vasing.) herbicidal ratio grade [1, 4]: 4 (Herbicidal ratio of 70% or more and less than 90%)
C (Monochoria vaginalis) herbicidal ratio grade (Monochoria vaginalis; [4]): 3 (Herbicidal ratio of 40% or more and less than 70%)
B (Scirpus juncoides) herbicidal ratio grade (Scirpus juncoides; [4]): 4 (Herbicidal ratio of 70% or more and less than 90%)
E (herbicidal effect grade) (Cyperus difformis; [4]): 5 (Herbicidal ratio of 90% or more (almost completely withered))
H (herbicidal effect grade) [2, 4]: 5 (Herbicidal ratio of 90% or more (almost completely withered))
D (herbicidal effect grade) (Leptochloa chinensis; [4]): 5 (Herbicidal ratio of 90% or more (almost completely withered))
b (effect on crop grade) [3, 4]: 4 (Herbicidal ratio of 70% or more and less than 90%)
e (Triticum aestivum): 0 (Herbicidal ratio of 5% or less (almost no effect))
b (Zea mays): 5 (Herbicidal ratio of 90% or more (almost completely withered))

Cc1nnc(NC(=O)c2ccc(C(F)(F)F)n3c(SCC(C)C)nnc23)o1 [1-093]
A (Echinochloa oryzicola Vasing.) herbicidal ratio grade [1, 4]: 3 (Herbicidal ratio of 40% or more and less than 70%)
C (Monochoria vaginalis) herbicidal ratio grade (Monochoria vaginalis; [4]): 3 (Herbicidal ratio of 40% or more and less than 70%)
B (Scirpus juncoides) herbicidal ratio grade (Scirpus juncoides; [4]): 3 (Herbicidal ratio of 40% or more and less than 70%)
E (herbicidal effect grade) (Cyperus difformis; [4]): 4 (Herbicidal ratio of 70% or more and less than 90%)
H (herbicidal effect grade) [2, 4]: 4 (Herbicidal ratio of 70% or more and less than 90%)
D (herbicidal effect grade) (Leptochloa chinensis; [4]): 5 (Herbicidal ratio of 90% or more (almost completely withered))
b (effect on crop grade) [3, 4]: 1 (Herbicidal ratio of 5% or more and less than 20%)
e (Triticum aestivum): 0 (Herbicidal ratio of 5% or less (almost no effect))
b (Zea mays): 0 (Herbicidal ratio of 5% or less (almost no effect))

CCC(C)Sc1nnc2c(C(=O)Nc3nnc(C)o3)ccc(C(F)(F)F)n12 (stereo not drawn) [1-094]
A (Echinochloa oryzicola Vasing.) herbicidal ratio grade [1, 4]: 4 (Herbicidal ratio of 70% or more and less than 90%)
C (Monochoria vaginalis) herbicidal ratio grade (Monochoria vaginalis; [4]): 3 (Herbicidal ratio of 40% or more and less than 70%)
B (Scirpus juncoides) herbicidal ratio grade (Scirpus juncoides; [4]): 3 (Herbicidal ratio of 40% or more and less than 70%)
E (herbicidal effect grade) (Cyperus difformis; [4]): 4 (Herbicidal ratio of 70% or more and less than 90%)
H (herbicidal effect grade) [2, 4]: 5 (Herbicidal ratio of 90% or more (almost completely withered))
D (herbicidal effect grade) (Leptochloa chinensis; [4]): 4 (Herbicidal ratio of 70% or more and less than 90%)
b (effect on crop grade) [3, 4]: 1 (Herbicidal ratio of 5% or more and less than 20%)
e (Triticum aestivum): 1 (Herbicidal ratio of 5% or more and less than 20%)
b (Zea mays): 0 (Herbicidal ratio of 5% or less (almost no effect))

Cc1nnc(NC(=O)c2ccc(C(F)(F)F)n3c(SC(C)(C)C)nnc23)o1 [1-095]
A (Echinochloa oryzicola Vasing.) herbicidal ratio grade [1, 4]: 4 (Herbicidal ratio of 70% or more and less than 90%)
C (Monochoria vaginalis) herbicidal ratio grade (Monochoria vaginalis; [4]): 4 (Herbicidal ratio of 70% or more and less than 90%)
B (Scirpus juncoides) herbicidal ratio grade (Scirpus juncoides; [4]): 5 (Herbicidal ratio of 90% or more (almost completely withered))
E (herbicidal effect grade) (Cyperus difformis; [4]): 4 (Herbicidal ratio of 70% or more and less than 90%)
H (herbicidal effect grade) [2, 4]: 4 (Herbicidal ratio of 70% or more and less than 90%)
D (herbicidal effect grade) (Leptochloa chinensis; [4]): 4 (Herbicidal ratio of 70% or more and less than 90%)
b (effect on crop grade) [3, 4]: 1 (Herbicidal ratio of 5% or more and less than 20%)
e (Triticum aestivum): 1 (Herbicidal ratio of 5% or more and less than 20%)
b (Zea mays): 0 (Herbicidal ratio of 5% or less (almost no effect))

Cc1nnc(NC(=O)c2ccc(C(F)(F)F)n3c(N4CCOCC4)nnc23)o1 [1-096]
A (Echinochloa oryzicola Vasing.) herbicidal ratio grade [1, 4]: 4 (Herbicidal ratio of 70% or more and less than 90%)
C (Monochoria vaginalis) herbicidal ratio grade (Monochoria vaginalis; [4]): 4 (Herbicidal ratio of 70% or more and less than 90%)
B (Scirpus juncoides) herbicidal ratio grade (Scirpus juncoides; [4]): 3 (Herbicidal ratio of 40% or more and less than 70%)
E (herbicidal effect grade) (Cyperus difformis; [4]): 4 (Herbicidal ratio of 70% or more and less than 90%)
H (herbicidal effect grade) [2, 4]: 5 (Herbicidal ratio of 90% or more (almost completely withered))
D (herbicidal effect grade) (Leptochloa chinensis; [4]): 5 (Herbicidal ratio of 90% or more (almost completely withered))
b (effect on crop grade) [3, 4]: 4 (Herbicidal ratio of 70% or more and less than 90%)
e (Triticum aestivum): 1 (Herbicidal ratio of 5% or more and less than 20%)
b (Zea mays): 4 (Herbicidal ratio of 70% or more and less than 90%)

CC(C)c1nnc2c(C(=O)Nc3nnc(C(F)(F)F)o3)ccc(C(F)(F)F)n12 [1-100]
A (Echinochloa oryzicola Vasing.) herbicidal ratio grade [1, 4]: 4 (Herbicidal ratio of 70% or more and less than 90%)
C (Monochoria vaginalis) herbicidal ratio grade (Monochoria vaginalis; [4]): 4 (Herbicidal ratio of 70% or more and less than 90%)
B (Scirpus juncoides) herbicidal ratio grade (Scirpus juncoides; [4]): 3 (Herbicidal ratio of 40% or more and less than 70%)
E (herbicidal effect grade) (Cyperus difformis; [4]): 4 (Herbicidal ratio of 70% or more and less than 90%)
H (herbicidal effect grade) [2, 4]: 5 (Herbicidal ratio of 90% or more (almost completely withered))
D (herbicidal effect grade) (Leptochloa chinensis; [4]): 5 (Herbicidal ratio of 90% or more (almost completely withered))
b (effect on crop grade) [3, 4]: 0 (Herbicidal ratio of 5% or less (almost no effect))
e (Triticum aestivum): 0 (Herbicidal ratio of 5% or less (almost no effect))
b (Zea mays): 0 (Herbicidal ratio of 5% or less (almost no effect))

COc1cccc(Nc2nnc3c(C(=O)Nc4nnc(C)o4)ccc(C(F)(F)F)n23)n1 [1-102]
A (Echinochloa oryzicola Vasing.) herbicidal ratio grade [1, 4]: 1 (Herbicidal ratio of 5% or more and less than 20%)
C (Monochoria vaginalis) herbicidal ratio grade (Monochoria vaginalis; [4]): 1 (Herbicidal ratio of 5% or more and less than 20%)
B (Scirpus juncoides) herbicidal ratio grade (Scirpus juncoides; [4]): 1 (Herbicidal ratio of 5% or more and less than 20%)
E (herbicidal effect grade) (Cyperus difformis; [4]): 4 (Herbicidal ratio of 70% or more and less than 90%)
H (herbicidal effect grade) [2, 4]: 4 (Herbicidal ratio of 70% or more and less than 90%)
D (herbicidal effect grade) (Leptochloa chinensis; [4]): 5 (Herbicidal ratio of 90% or more (almost completely withered))
b (effect on crop grade) [3, 4]: 2 (Herbicidal ratio of 20% or more and less than 40%)
e (Triticum aestivum): 0 (Herbicidal ratio of 5% or less (almost no effect))
b (Zea mays): 0 (Herbicidal ratio of 5% or less (almost no effect))

C=CCSc1nnc2c(C(=O)Nc3nnco3)ccc(C(F)(F)F)n12 [1-128]
A (Echinochloa oryzicola Vasing.) herbicidal ratio grade [1, 5]: 1 (Herbicidal ratio of 5% or more and less than 20%)
C (Monochoria vaginalis) herbicidal ratio grade (Monochoria vaginalis; [5]): 0 (Herbicidal ratio of 5% or less (almost no effect))
B (Scirpus juncoides) herbicidal ratio grade (Scirpus juncoides; [5]): 3 (Herbicidal ratio of 40% or more and less than 70%)
E (herbicidal effect grade) (Cyperus difformis; [5]): 3 (Herbicidal ratio of 40% or more and less than 70%)
H (herbicidal effect grade) [2, 5]: 4 (Herbicidal ratio of 70% or more and less than 90%)
D (herbicidal effect grade) (Leptochloa chinensis; [5]): 3 (Herbicidal ratio of 40% or more and less than 70%)
b (effect on crop grade) [3, 5]: 0 (Herbicidal ratio of 5% or less (almost no effect))
e (Triticum aestivum) effect on crop grade (Triticum aestivum; Application herbicide amount 288 g/ha): 1 (Herbicidal ratio of 5% or more and less than 20%)
c (Zea mays) effect on crop grade (Zea mays; Application herbicide amount 288 g/ha, foliage application): 0 (Herbicidal ratio of 5% or less (almost no effect))

Cc1cc(C(=O)Nc2nnnn2C)c2nnc(C(C)C)n2c1C(F)(F)F [2-050]
A (Echinochloa oryzicola Vasing.) herbicidal ratio grade [1, 6]: 1 (Herbicidal ratio of 5% or more and less than 20%)
C (Monochoria vaginalis) herbicidal ratio grade (Monochoria vaginalis; [6]): 2 (Herbicidal ratio of 20% or more and less than 40%)
B (Scirpus juncoides) herbicidal ratio grade (Scirpus juncoides; [6]): 0 (Herbicidal ratio of 5% or less (almost no effect))
E (herbicidal effect grade) (Cyperus difformis; [6]): 3 (Herbicidal ratio of 40% or more and less than 70%)
H (herbicidal effect grade) [2, 6]: 4 (Herbicidal ratio of 70% or more and less than 90%)
D (herbicidal effect grade) (Leptochloa chinensis; [6]): 3 (Herbicidal ratio of 40% or more and less than 70%)
b (effect on crop grade) [3, 6]: 0 (Herbicidal ratio of 5% or less (almost no effect))
e (Triticum aestivum) effect on crop grade (Triticum aestivum; 192 g/ha): 0 (Herbicidal ratio of 5% or less (almost no effect))
b (Zea mays) effect on crop grade (Zea mays; foliage application, 192 g/ha): 0 (Herbicidal ratio of 5% or less (almost no effect))
